The term EC50 denotes the midpoint of the concentration-response curve. Lower therefore signals greater potency.

What all share (type): cell-based
For one assay, the target named is T1, glucagon receptor (Homo sapiens, UniProt P47871).
T1 construct: expressed in transfected cells; host or cells: HEK293
Nature of the assay: cAMP synthesis functional assay (firefly luciferase reporter in HEK293 cells), glucagon receptor. Conditions: for EC50: Glucagon Receptor EC50, cAMP luciferase reporter assay as in Example 16; for Glucagon Receptor relative activity: relative to the standard (Std.) EC50 of the same run. (In general: Reporter assays use an easily measured gene product as a stand-in for the process of interest.)

The next assay concerns the target T2, GLP-1 receptor (Homo sapiens, UniProt P43220).
T2 construct: expressed in transfected cells; host or cells: HEK293
Nature of the assay: cAMP synthesis functional assay (firefly luciferase reporter in HEK293 cells), GLP-1 receptor. Conditions: for EC50: GLP-1 Receptor EC50, cAMP luciferase reporter assay as in Example 16; for GLP-1 Receptor relative activity: relative to the standard (Std.) EC50 of the same run.

In another assay the target is T3, GIP receptor (Homo sapiens, UniProt P48546).
T3 construct: expressed in transfected cells; host or cells: HEK293
T3 sequence (P48546 22-466): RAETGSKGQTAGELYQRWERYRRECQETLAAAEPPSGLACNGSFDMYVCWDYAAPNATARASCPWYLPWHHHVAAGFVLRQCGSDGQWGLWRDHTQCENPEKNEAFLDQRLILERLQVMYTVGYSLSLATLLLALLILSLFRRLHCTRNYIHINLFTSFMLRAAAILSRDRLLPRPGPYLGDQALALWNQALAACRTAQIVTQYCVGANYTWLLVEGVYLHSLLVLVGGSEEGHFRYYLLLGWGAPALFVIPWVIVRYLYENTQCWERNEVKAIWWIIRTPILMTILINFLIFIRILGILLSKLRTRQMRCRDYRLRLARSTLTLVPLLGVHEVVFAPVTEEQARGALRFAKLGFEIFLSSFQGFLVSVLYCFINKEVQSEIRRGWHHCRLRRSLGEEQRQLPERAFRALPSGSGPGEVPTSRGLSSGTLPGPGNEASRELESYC
The experiment in a line: cAMP synthesis functional assay (firefly luciferase reporter in HEK293 cells), GIP receptor. Conditions: for EC50: GIP Receptor EC50, cAMP luciferase reporter assay as in Example 16; for GIP Receptor relative activity: relative to the standard (Std.) EC50 of the same run.

In assay [1] the test system is glucagon receptor, GLP-1 receptor or GIP receptor. Nature of the assay: Agonist profile across receptors assigned from the cAMP reporter assay data. The conditions noted are these: assigned from the in vitro EC50 data of Tables 1-4.

Molecules are shown by their SMILES. Where a SMILES comes first, the peptide text is derived from it. [ ]: non-standard residue; d: D form. Dab = NCC[C@H](N)C(=O)O; Aib = CC(C)(N)C(=O)O

T2 sequence (P43220 24-463, species assumed): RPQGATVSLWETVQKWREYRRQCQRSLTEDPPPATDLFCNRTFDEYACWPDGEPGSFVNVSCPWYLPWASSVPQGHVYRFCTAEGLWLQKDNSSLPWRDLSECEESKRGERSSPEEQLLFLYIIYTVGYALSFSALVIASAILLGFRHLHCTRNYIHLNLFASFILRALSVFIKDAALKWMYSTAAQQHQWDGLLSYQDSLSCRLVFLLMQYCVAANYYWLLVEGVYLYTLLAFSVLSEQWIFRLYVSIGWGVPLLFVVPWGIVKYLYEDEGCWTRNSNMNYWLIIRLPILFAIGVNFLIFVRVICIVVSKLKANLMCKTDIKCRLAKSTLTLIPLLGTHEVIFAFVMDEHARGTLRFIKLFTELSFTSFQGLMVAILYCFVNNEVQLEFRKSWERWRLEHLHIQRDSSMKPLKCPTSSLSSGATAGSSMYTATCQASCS
T1 sequence (P47871 26-477): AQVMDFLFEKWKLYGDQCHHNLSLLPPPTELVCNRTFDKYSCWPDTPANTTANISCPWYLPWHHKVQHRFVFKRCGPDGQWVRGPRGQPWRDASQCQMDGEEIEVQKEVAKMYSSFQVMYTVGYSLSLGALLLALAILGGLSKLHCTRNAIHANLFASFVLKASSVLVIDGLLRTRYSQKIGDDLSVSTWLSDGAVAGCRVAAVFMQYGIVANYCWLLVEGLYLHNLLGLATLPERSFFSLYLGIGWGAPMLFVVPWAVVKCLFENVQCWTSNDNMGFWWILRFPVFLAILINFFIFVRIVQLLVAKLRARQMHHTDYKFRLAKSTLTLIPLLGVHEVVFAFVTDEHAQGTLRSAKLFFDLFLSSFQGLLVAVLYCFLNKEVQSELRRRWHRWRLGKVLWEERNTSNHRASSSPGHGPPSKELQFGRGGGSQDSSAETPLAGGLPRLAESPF

On to `CCCCCCCCCCCCCC(=O)NCCCC[C@H](NC(=O)[C@@H](NC(=O)[C@H](Cc1ccccc1)NC(=O)[C@H](CCC(=O)O)NC(=O)C(C)(C)NC(=O)[C@H](C)NC(=O)[C@H](C)NC(=O)[C@H](CCC(N)=O)NC(=O)[C@H](CCCCN)NC(=O)[C@H](CC(=O)O)NC(=O)[C@H](CC(C)C)NC(=O)[C@H](Cc1ccc(O)cc1)NC(=O)[C@@H](NC(=O)[C@H](CO)NC(=O)[C@H](Cc1ccc(O)cc1)NC(=O)[C@H](CC(=O)O)NC(=O)[C@H](CO)NC(=O)[C@@H](NC(=O)[C@H](Cc1ccccc1)NC(=O)[C@@H](NC(=O)CNC(=O)[C@H](CCC(=O)O)NC(=O)C(C)(C)NC(=O)[C@@H](N)Cc1ccc(O)cc1)[C@@H](C)O)[C@@H](C)O)[C@@H](C)CC)C(C)C)C(=O)N[C@@H](Cc1c[nH]c2ccccc12)C(=O)N[C@@H](CC(C)C)C(=O)N[C@@H](CC(C)C)C(=O)N[C@@H](C)C(=O)NCC(=O)NCC(=O)N1CCC[C@H]1C(=O)N[C@@H](CO)C(=O)N[C@@H](CO)C(=O)NCC(=O)N[C@@H](C)C(=O)N1CCC[C@H]1C(=O)N1CCC[C@H]1C(=O)N1CCC[C@H]1C(=O)N[C@@H](CO)C(N)=O` [mt-265], for which, on glucagon receptor, the concentration for a half-maximal effect (EC50) came to 6.43 nM and the “Glucagon Receptor relative activity” value is given as 0.68%. On GLP-1 receptor, a half-maximal response (EC50) required 0.993 nM and the “GLP-1 Receptor relative activity” value is listed as 1.77%. On GIP receptor, the midpoint of the response, the EC50, lay at 0.0624 nM and the “GIP Receptor relative activity” value was 13.62%. For the same molecule, the “receptor activity profile (glucagon / GLP-1 / GIP agonism)” value in assay [1] was “exhibited activity at the GIP, GLP-1, and glucagon receptors”.

On to `CCCCCCCCCCCCCCCC(=O)NCCCC[C@H](NC(=O)[C@@H](NC(=O)[C@H](Cc1ccccc1)NC(=O)[C@H](CCC(=O)O)NC(=O)C(C)(C)NC(=O)[C@H](C)NC(=O)[C@H](C)NC(=O)[C@H](CCC(N)=O)NC(=O)[C@H](CCCCN)NC(=O)[C@H](CC(=O)O)NC(=O)[C@H](CC(C)C)NC(=O)[C@H](Cc1ccc(O)cc1)NC(=O)[C@@H](NC(=O)[C@H](CO)NC(=O)[C@H](Cc1ccc(O)cc1)NC(=O)[C@H](CC(=O)O)NC(=O)[C@H](CO)NC(=O)[C@@H](NC(=O)[C@H](Cc1ccccc1)NC(=O)[C@@H](NC(=O)CNC(=O)[C@H](CCC(=O)O)NC(=O)C(C)(C)NC(=O)[C@@H](N)Cc1ccc(O)cc1)[C@@H](C)O)[C@@H](C)O)[C@@H](C)CC)C(C)C)C(=O)N[C@@H](Cc1c[nH]c2ccccc12)C(=O)N[C@@H](CC(C)C)C(=O)N[C@@H](CC(C)C)C(=O)N[C@@H](C)C(=O)NCC(=O)NCC(=O)N1CCC[C@H]1C(=O)N[C@@H](CO)C(=O)N[C@@H](CO)C(=O)NCC(=O)N[C@@H](C)C(=O)N1CCC[C@H]1C(=O)N1CCC[C@H]1C(=O)N1CCC[C@H]1C(=O)N[C@@H](CO)C(N)=O` [mt-266], for which, on glucagon receptor, the EC50 worked out at 18.6 nM and the “Glucagon Receptor relative activity” value was found to be 0.23%. On GLP-1 receptor, the EC50 amounted to 1.53 nM and the “GLP-1 Receptor relative activity” value is 1.15%. Also, at GIP receptor, the EC50 turned out to be 0.164 nM and the “GIP Receptor relative activity” value was 5.19%. The “receptor activity profile (glucagon / GLP-1 / GIP agonism)” value in assay [1] is “exhibited activity at the GIP, GLP-1, and glucagon receptors”.

As for `CCCCCCCCCCCCCCCCCC(=O)NCCCC[C@H](NC(=O)[C@@H](NC(=O)[C@H](Cc1ccccc1)NC(=O)[C@H](CCC(=O)O)NC(=O)C(C)(C)NC(=O)[C@H](C)NC(=O)[C@H](C)NC(=O)[C@H](CCC(N)=O)NC(=O)[C@H](CCCCN)NC(=O)[C@H](CC(=O)O)NC(=O)[C@H](CC(C)C)NC(=O)[C@H](Cc1ccc(O)cc1)NC(=O)[C@@H](NC(=O)[C@H](CO)NC(=O)[C@H](Cc1ccc(O)cc1)NC(=O)[C@H](CC(=O)O)NC(=O)[C@H](CO)NC(=O)[C@@H](NC(=O)[C@H](Cc1ccccc1)NC(=O)[C@@H](NC(=O)CNC(=O)[C@H](CCC(=O)O)NC(=O)C(C)(C)NC(=O)[C@@H](N)Cc1ccc(O)cc1)[C@@H](C)O)[C@@H](C)O)[C@@H](C)CC)C(C)C)C(=O)N[C@@H](Cc1c[nH]c2ccccc12)C(=O)N[C@@H](CC(C)C)C(=O)N[C@@H](CC(C)C)C(=O)N[C@@H](C)C(=O)NCC(=O)NCC(=O)N1CCC[C@H]1C(=O)N[C@@H](CO)C(=O)N[C@@H](CO)C(=O)NCC(=O)N[C@@H](C)C(=O)N1CCC[C@H]1C(=O)N1CCC[C@H]1C(=O)N1CCC[C@H]1C(=O)N[C@@H](CO)C(N)=O` [mt-267], on glucagon receptor, the half-maximal effective concentration (EC50) was determined as 62 nM and the “Glucagon Receptor relative activity” value amounted to 0.07%. Also, at GLP-1 receptor, the response was half-maximal at 2.09 nM (EC50) and the “GLP-1 Receptor relative activity” value turned out to be 0.84%. Also, at GIP receptor, the response was half-maximal at 1.31 nM (EC50) and the “GIP Receptor relative activity” value worked out at 0.65%. For the same molecule, the “receptor activity profile (glucagon / GLP-1 / GIP agonism)” value in assay [1] is “exhibited activity at the GIP, GLP-1, and glucagon receptors”.

For the molecule `CC[C@H](C)[C@H](NC(=O)[C@H](CO)NC(=O)[C@H](Cc1ccc(O)cc1)NC(=O)[C@H](CC(=O)O)NC(=O)[C@H](CO)NC(=O)[C@@H](NC(=O)[C@H](Cc1ccccc1)NC(=O)[C@@H](NC(=O)CNC(=O)[C@H](CCC(N)=O)NC(=O)C(C)(C)NC(=O)[C@@H](N)Cc1ccc(O)cc1)[C@@H](C)O)[C@@H](C)O)C(=O)N[C@@H](Cc1ccc(O)cc1)C(=O)N[C@@H](CC(C)C)C(=O)N[C@@H](CC(=O)O)C(=O)N[C@@H](CCCN)C(=O)N[C@@H](CCC(N)=O)C(=O)N[C@@H](C)C(=O)N[C@@H](C)C(=O)NC(C)(C)C(=O)N[C@@H](CCC(=O)O)C(=O)N[C@@H](Cc1ccccc1)C(=O)N[C@H](C(=O)N[C@@H](CC(N)=O)C(=O)N[C@@H](Cc1c[nH]c2ccccc12)C(=O)N[C@@H](CC(C)C)C(=O)N[C@@H](CC(C)C)C(=O)N[C@@H](C)C(=O)NCC(=O)NCC(=O)N1CCC[C@H]1C(=O)N[C@@H](CO)C(=O)N[C@@H](CO)C(=O)NCC(=O)N[C@@H](C)C(=O)N1CCC[C@H]1C(=O)N1CCC[C@H]1C(=O)N1CCC[C@H]1C(=O)N[C@@H](CO)C(=O)N[C@@H](CS)C(N)=O)C(C)C` [mt-275], the “Glucagon Receptor relative activity” value at glucagon receptor came to 62.15%. Further, on GLP-1 receptor, the EC50 turned out to be 0.0068 nM and the “GLP-1 Receptor relative activity” value was 104.41%. On GIP receptor, the “GIP Receptor relative activity” value turned out to be 112.10%. Further, the “receptor activity profile (glucagon / GLP-1 / GIP agonism)” value in assay [1] is “exhibited activity at the GIP, GLP-1, and glucagon receptors”.

On to `CC[C@H](C)[C@H](NC(=O)[C@H](CO)NC(=O)[C@H](Cc1ccc(O)cc1)NC(=O)[C@H](CC(=O)O)NC(=O)[C@H](CO)NC(=O)[C@@H](NC(=O)[C@H](Cc1ccccc1)NC(=O)[C@@H](NC(=O)CNC(=O)[C@H](CCC(N)=O)NC(=O)C(C)(C)NC(=O)[C@@H](N)Cc1ccc(O)cc1)[C@@H](C)O)[C@@H](C)O)C(=O)N[C@@H](Cc1ccc(O)cc1)C(=O)N[C@@H](CC(C)C)C(=O)N[C@@H](CC(=O)O)C(=O)N[C@@H](CCN)C(=O)N[C@@H](CCC(N)=O)C(=O)N[C@@H](C)C(=O)N[C@@H](C)C(=O)NC(C)(C)C(=O)N[C@@H](CCC(=O)O)C(=O)N[C@@H](Cc1ccccc1)C(=O)N[C@H](C(=O)N[C@@H](CC(N)=O)C(=O)N[C@@H](Cc1c[nH]c2ccccc12)C(=O)N[C@@H](CC(C)C)C(=O)N[C@@H](CC(C)C)C(=O)N[C@@H](C)C(=O)NCC(=O)NCC(=O)N1CCC[C@H]1C(=O)N[C@@H](CO)C(=O)N[C@@H](CO)C(=O)NCC(=O)N[C@@H](C)C(=O)N1CCC[C@H]1C(=O)N1CCC[C@H]1C(=O)N1CCC[C@H]1C(=O)N[C@@H](CO)C(=O)N[C@@H](CS)C(N)=O)C(C)C` [mt-276] (H-Y[Aib]QGTFTSDYSIYLD[Dab]QAA[Aib]EFVNWLLAGGPSSGAPPPSC-NH2; N-terminus assumed), for which the “Glucagon Receptor relative activity” value on glucagon receptor worked out at 77.65%. Also, the “GLP-1 Receptor relative activity” value at GLP-1 receptor was 107.58%. Also, at GIP receptor, the concentration for a half-maximal effect (EC50) is 0.008 nM and the “GIP Receptor relative activity” value is recorded as 173.75%. The “receptor activity profile (glucagon / GLP-1 / GIP agonism)” value in assay [1] is “exhibited activity at the GIP, GLP-1, and glucagon receptors”.

With `CC[C@H](C)[C@H](NC(=O)[C@H](CO)NC(=O)[C@H](Cc1ccc(O)cc1)NC(=O)[C@H](CC(=O)O)NC(=O)[C@H](CO)NC(=O)[C@@H](NC(=O)[C@H](Cc1ccccc1)NC(=O)[C@@H](NC(=O)CNC(=O)[C@H](CCC(N)=O)NC(=O)C(C)(C)NC(=O)[C@@H](N)Cc1ccc(O)cc1)[C@@H](C)O)[C@@H](C)O)C(=O)N[C@@H](Cc1ccc(O)cc1)C(=O)N[C@@H](CC(C)C)C(=O)N[C@@H](CC(=O)O)C(=O)N[C@@H](CCCCN)C(=O)N[C@@H](CCC(N)=O)C(=O)N[C@@H](C)C(=O)N[C@@H](C)C(=O)NC(C)(C)C(=O)N[C@@H](CCC(=O)O)C(=O)N[C@@H](Cc1ccccc1)C(=O)N[C@H](C(=O)N[C@@H](CC(N)=O)C(=O)N[C@@H](Cc1c[nH]c2ccccc12)C(=O)N[C@@H](CC(C)C)C(=O)N[C@@H](CC(C)C)C(=O)N[C@@H](C)C(=O)NCC(=O)NCC(=O)N1CCC[C@H]1C(=O)N[C@@H](CO)C(=O)N[C@@H](CO)C(=O)NCC(=O)N[C@@H](C)C(=O)N1CCC[C@H]1C(=O)N1CCC[C@H]1C(=O)N1CCC[C@H]1C(=O)N[C@@H](CO)C(=O)N[C@@H](CCCCN)C(N)=O)C(C)C` [mt-280] (H-Y[Aib]QGTFTSDYSIYLDKQAA[Aib]EFVNWLLAGGPSSGAPPPSK-NH2; N-terminus assumed), at glucagon receptor, it took 0.0677 nM to reach a half-maximal effect (EC50) and the “Glucagon Receptor relative activity” value is listed as 74.74%. For the same molecule, at GLP-1 receptor, a half-maximal effect (EC50) was put at 0.0126 nM and the “GLP-1 Receptor relative activity” value is reported as 153.17%. Further, at GIP receptor, the “GIP Receptor relative activity” value turned out to be 159.06%. In addition, the “receptor activity profile (glucagon / GLP-1 / GIP agonism)” value in assay [1] was “exhibited activity at the GIP, GLP-1, and glucagon receptors”.

These data come from patent publication US9062124B2, “GIP-based mixed agonists for treatment of metabolic disorders and obesity” (priority 2008, dated 2015).
